Patent US6858638B2, “Substituted indazoles, compositions containing them, method of production and use” (Aventis Pharma S.A., priority 2002, dated 2005)

Tests used:
Format in all cases: biochemical
[1] = target: T1, Aurora2 kinase (Homo sapiens, UniProt O14965); experiment: Aurora2 kinase radioactivity scintillation assay using nickel chelate (NuMA substrate); conditions: 10 μM; read-out: Aurora2 % inhib at 10 μM
T1 construct: A complete recombinant Aurora2 enzyme; His tag (N); made in house; host or cells: E. coli
T1 sequence (O14965 1-403): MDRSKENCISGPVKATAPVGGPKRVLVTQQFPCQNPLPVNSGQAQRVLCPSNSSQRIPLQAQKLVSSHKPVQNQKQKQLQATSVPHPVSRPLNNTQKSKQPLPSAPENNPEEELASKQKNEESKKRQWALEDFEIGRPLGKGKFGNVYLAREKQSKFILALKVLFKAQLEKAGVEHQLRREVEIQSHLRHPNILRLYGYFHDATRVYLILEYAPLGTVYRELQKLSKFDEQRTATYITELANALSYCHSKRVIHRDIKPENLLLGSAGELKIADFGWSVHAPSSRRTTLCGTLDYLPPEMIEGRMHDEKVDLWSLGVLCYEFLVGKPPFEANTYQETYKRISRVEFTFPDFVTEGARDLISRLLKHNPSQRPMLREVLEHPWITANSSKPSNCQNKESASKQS
In short: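 His-tagged full-length Aurora2 (0.02 μM, E. coli) phosphorylating His-tagged NuMA C-terminal fragment (0.5 μM) with 1 μM ATP plus [33P]-ATP, 30 min at 37 °C, pH 7.5 Tris buffer with MgCl2. Nickel-chelate scintillation read; percent inhibition versus no-compound control.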

[2] = target: T2, human IGF1R cytoplasmic domain (Homo sapiens, UniProt P08069); experiment: IGF1R autophosphorylation inhibition, time resolved fluorescence (HTRF) assay; conditions: 10 μM; read-out: IGF1R % inhib at 10 μM
T2 construct: The human IGF1R cytoplasmic domain was cloned; made in house; host or cells: SF21 insect cells (baculovirus)
In short: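 GST-tagged human IGF1R cytoplasmic domain from SF21 cells incubated with compound in 50 mM Hepes pH 7.5, 5 mM MnCl2, 50 mM NaCl, […] ATP. Autophosphorylation detected by HTRF (Eu-K anti-phosphotyrosine, XL665 anti-GST) after EDTA/KF stop; percentage inhibition versus no-compound control.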

[3] = target: T3, human KDR enzyme (Homo sapiens, UniProt P35968); experiment: KDR substrate (PLCγ) phosphorylation, scintillation assay; conditions: 10 μM; read-out: KDR % inhib at 10 μM
T3 construct: The cytoplasmic domain of the human KDR enzyme; GST; made in house; host or cells: SF21 insect cells (baculovirus)
In short: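 GST-fused human KDR cytoplasmic domain from SF21 cells (about 60% pure, 100 ng) phosphorylated 2 μg of GST-PLCγ SH2-SH3 fragment. The trigger solution held γ33P-ATP with 2 μM cold ATP, in MOPS buffer pH 7.2 with Mg2+, Mn2+, vanadate and NaF. Reactions ran 1 h at 37 °C, were stopped with EDTA and counted by scintillation; results are % inhibition versus the no-compound control.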

[4] = target: T4, human FAK (Homo sapiens, UniProt Q05397); experiment: FAK autophosphorylation inhibition, time resolved fluorescence (HTRF) assay; conditions: 10 μM (values without asterisk); read-out: FAK % inhib at 10 μM
T4 construct: The complete cDNA of human FAK; made in house; host or cells: baculovirus expression system (vector pFastBac HTc)
In short: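 His-tagged full-length human FAK from baculovirus (6.6 µg/ml) self-phosphorylates with 15 µM ATP in HEPES pH 7.2, MgCl2, vanadate, 1 h at 37 °C. HTRF detection (Eu-anti-phosphotyrosine / XL665-anti-His), 665/620 nm ratio; % inhibition vs untreated control, duplicate mean.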

T3 sequence (P35968 786-1356 limits assumed): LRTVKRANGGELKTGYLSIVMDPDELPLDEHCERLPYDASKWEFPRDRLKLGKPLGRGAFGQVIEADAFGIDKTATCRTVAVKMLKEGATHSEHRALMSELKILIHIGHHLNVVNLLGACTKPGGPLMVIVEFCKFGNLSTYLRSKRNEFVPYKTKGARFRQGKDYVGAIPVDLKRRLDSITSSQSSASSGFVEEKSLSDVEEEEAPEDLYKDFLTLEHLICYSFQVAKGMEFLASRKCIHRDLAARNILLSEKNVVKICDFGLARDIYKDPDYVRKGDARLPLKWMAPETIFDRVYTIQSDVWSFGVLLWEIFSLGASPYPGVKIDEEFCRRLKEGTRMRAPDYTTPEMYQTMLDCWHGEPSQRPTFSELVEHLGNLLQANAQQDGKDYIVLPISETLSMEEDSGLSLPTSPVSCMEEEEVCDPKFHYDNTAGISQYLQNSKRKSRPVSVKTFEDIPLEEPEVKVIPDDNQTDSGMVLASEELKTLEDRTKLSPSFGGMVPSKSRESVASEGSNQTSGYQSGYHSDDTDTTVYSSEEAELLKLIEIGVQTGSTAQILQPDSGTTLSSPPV
T4 sequence (Q05397 whole entry): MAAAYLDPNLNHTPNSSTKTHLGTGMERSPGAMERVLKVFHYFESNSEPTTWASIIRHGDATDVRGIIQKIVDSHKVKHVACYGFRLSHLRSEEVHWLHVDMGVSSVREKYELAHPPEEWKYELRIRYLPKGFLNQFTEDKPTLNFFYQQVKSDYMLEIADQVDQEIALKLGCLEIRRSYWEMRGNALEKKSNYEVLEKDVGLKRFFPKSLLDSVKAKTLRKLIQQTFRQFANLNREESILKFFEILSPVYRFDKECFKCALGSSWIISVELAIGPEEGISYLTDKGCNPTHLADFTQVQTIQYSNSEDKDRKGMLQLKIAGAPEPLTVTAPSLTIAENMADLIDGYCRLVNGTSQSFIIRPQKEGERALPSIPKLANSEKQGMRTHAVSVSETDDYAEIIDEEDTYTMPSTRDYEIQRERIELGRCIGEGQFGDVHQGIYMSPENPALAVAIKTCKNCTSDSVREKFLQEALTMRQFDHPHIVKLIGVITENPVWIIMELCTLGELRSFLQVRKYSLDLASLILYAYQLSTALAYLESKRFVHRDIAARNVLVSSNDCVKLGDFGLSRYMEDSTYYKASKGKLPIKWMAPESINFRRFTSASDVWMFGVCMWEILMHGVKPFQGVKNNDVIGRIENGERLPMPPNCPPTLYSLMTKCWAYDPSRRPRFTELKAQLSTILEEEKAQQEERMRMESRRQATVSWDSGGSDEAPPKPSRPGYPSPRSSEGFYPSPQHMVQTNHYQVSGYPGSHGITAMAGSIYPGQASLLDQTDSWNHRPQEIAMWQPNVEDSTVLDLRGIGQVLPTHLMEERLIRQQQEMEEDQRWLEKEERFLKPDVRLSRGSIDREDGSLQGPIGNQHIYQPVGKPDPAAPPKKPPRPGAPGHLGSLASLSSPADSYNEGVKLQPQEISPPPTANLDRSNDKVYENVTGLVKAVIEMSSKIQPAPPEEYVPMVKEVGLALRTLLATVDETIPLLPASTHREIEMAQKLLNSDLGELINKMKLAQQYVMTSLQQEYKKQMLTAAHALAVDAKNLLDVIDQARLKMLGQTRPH
T2 sequence (P08069 960-1367 limits assumed): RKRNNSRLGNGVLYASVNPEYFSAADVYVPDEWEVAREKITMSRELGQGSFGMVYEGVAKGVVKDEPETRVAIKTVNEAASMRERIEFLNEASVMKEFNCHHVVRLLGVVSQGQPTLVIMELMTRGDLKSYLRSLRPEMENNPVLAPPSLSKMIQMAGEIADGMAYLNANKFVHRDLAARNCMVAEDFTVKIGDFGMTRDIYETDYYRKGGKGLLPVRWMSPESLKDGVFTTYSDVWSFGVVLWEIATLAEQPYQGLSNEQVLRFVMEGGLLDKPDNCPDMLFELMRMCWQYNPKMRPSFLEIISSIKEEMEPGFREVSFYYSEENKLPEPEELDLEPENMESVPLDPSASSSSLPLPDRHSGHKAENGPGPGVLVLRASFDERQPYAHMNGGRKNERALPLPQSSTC

Row | SMILES | inhibition at 10 µM [1] [%] | inhibition at 10 µM [2] [%] | inhibition at 10 µM [3] [%] | inhibition at 10 µM [4] [%]
1 | COc1ccc(-c2n[nH]c3ccc(NS(=O)(=O)c4ccccc4S(C)(=O)=O)cc23)cc1OC [Example 198, 2-Methanesulfonyl-N-[3-(3,4-dimethoxyphenyl)-1H-indazol-5-yl]benzenesulfonamide] | 98 | 76 | 66 | 98
2 | COc1ccc(-c2n[nH]c3ccc(NS(=O)(=O)c4ccccc4S(C)(=O)=O)cc23)c(OC)c1 [Example 199, 2-Methanesulfonyl-N-[3-(2,4-dimethoxyphenyl)-1H-indazol-5-yl]benzenesulfonamide] | 87 | 27 | 45 | 87
3 | CS(=O)(=O)c1ccccc1S(=O)(=O)Nc1ccc2[nH]nc(-c3cccc(O)c3)c2c1 [Example 200, N-[3-(3-Hydroxyphenyl)-1H-indazol-5-yl]-2-methanesulfonyl-benzenesulfonamide] | 94 | 73 | 64 | 93
4 | CC(C)c1ccc(-c2n[nH]c3ccc(NS(=O)(=O)c4ccccc4S(C)(=O)=O)cc23)cc1 [Example 201, N-[3-(4-Isopropylphenyl)-1H-indazol-5-yl]-2-methanesulfonyl-benzenesulfonamide] | 82 | 24 | 50 | 55
5 | CS(=O)(=O)c1ccccc1S(=O)(=O)Nc1ccc2[nH]nc(-c3ccc(O)cc3)c2c1 [Example 202, N-[3-(4-Hydroxyphenyl)-1H-indazol-5-yl]-2-methanesulfonyl-benzenesulfonamide] | 96 | 83 | 79 | 97
6 | CC(C)c1cccc(-c2n[nH]c3ccc(NS(=O)(=O)c4ccccc4S(C)(=O)=O)cc23)c1 [Example 203, N-[3-(3-Isopropylphenyl)-1H-indazol-5-yl]-2-methanesulfonyl-benzenesulfonamide] | 84 | 59 | 39 | 86
7 | Cc1ccc(-c2n[nH]c3ccc(NS(=O)(=O)c4ccccc4S(C)(=O)=O)cc23)cc1N [Example 204, N-[3-(3-Amino-4-methyl-phenyl)-1H-indazol-5-yl]-2-methanesulfonyl-benzenesulfonamide] | 95 | 78 | 67 | 97
8 | CS(=O)(=O)c1ccccc1S(=O)(=O)Nc1ccc2[nH]nc(-c3ccc(Cl)c(Cl)c3)c2c1 [Example 205, N-[3-(3,4-Dichlorophenyl)-1H-indazol-5-yl]-2-methanesulfonyl-benzenesulfonamide] | 86 | 66 | 42 | 90
9 | CS(=O)(=O)c1ccccc1S(=O)(=O)Nc1ccc2[nH]nc(-c3ccc(OC(F)(F)F)cc3)c2c1 [Example 206, N-[3-(4-Trifluoromethoxy-phenyl)-1H-indazol-5-yl]-2-methanesulfonyl-benzenesulfonamide] | 85 | 61 | 48 | 58
10 | CC(=O)c1ccc(-c2n[nH]c3ccc(NS(=O)(=O)c4ccccc4S(C)(=O)=O)cc23)cc1 [Example 207, N-[3-(4-Acetylphenyl)-1H-indazol-5-yl]-2-methanesulfonyl-benzenesulfonamide] | 94 | 56 | 45 | 91
11 | CS(=O)(=O)c1ccccc1S(=O)(=O)Nc1ccc2[nH]nc(-c3cccc(Cl)c3Cl)c2c1 [Example 208, N-[3-(2,3-Dichlorophenyl)-1H-indazol-5-yl]-2-methanesulfonyl-benzenesulfonamide] | 56 | 0 | 25 | -1
12 | CS(=O)(=O)c1ccccc1S(=O)(=O)Nc1ccc2[nH]nc(-c3ccc(OCc4ccccc4)cc3)c2c1 [Example 209, N-[3-(4-Benzyloxyphenyl)-1H-indazol-5-yl]-2-methanesulfonyl-benzenesulfonamide] | 67 | 16 | 34 | 55
13 | CS(=O)(=O)c1ccccc1S(=O)(=O)Nc1ccc2[nH]nc(-c3ccc(-c4ccccc4)c(F)c3)c2c1 [Example 210, N-[3-(2-Fluorobiphenyl-4-yl)-1H-indazol-5-yl]-2-methanesulfonyl-benzenesulfonamide] | 65 | 0 | 50 | 70
14 | CS(=O)(=O)c1ccccc1S(=O)(=O)Nc1ccc2[nH]nc(-c3cc(Br)cc(Br)c3)c2c1 [Example 211, N-[3-(3,5-Dibromophenyl)-1H-indazol-5-yl]-2-methanesulfonyl-benzenesulfonamide] | 79 | 45 | 21 | 95
15 | CS(=O)(=O)c1ccccc1S(=O)(=O)Nc1ccc2[nH]nc(-c3ccc(Br)cc3F)c2c1 [Example 212, N-[3-(4-Bromo-2-fluoro-phenyl)-1H-indazol-5-yl]-2-methanesulfonyl-benzenesulfonamide] | 86 | 65 | 47 | 72
16 | CCSc1ccc(-c2n[nH]c3ccc(NS(=O)(=O)c4ccccc4S(C)(=O)=O)cc23)cc1 [Example 213, N-[3-(4-Ethylsulfanylphenyl)-1H-indazol-5-yl]-2-methanesulfonyl-benzenesulfonamide] | 89 | 77 | 68 | 80
17 | COc1ccc(-c2n[nH]c3ccc(NS(=O)(=O)c4ccccc4S(C)(=O)=O)cc23)c(OC)c1OC [Example 214, 2-Methanesulfonyl-N-[3-(2,3,4-trimethoxyphenyl)-1H-indazol-5-yl]-benzenesulfonamide] | 67 | 21 | 56 | 60
18 | CS(=O)(=O)c1ccccc1S(=O)(=O)Nc1ccc2[nH]nc(-c3ccc(C#N)cc3)c2c1 [Example 216, N-[3-(4-Cyanophenyl)-1H-indazol-5-yl]-2-methanesulfonyl-benzenesulfonamide] | 91 | 86 | 32 | 96
19 | CS(=O)(=O)c1ccccc1S(=O)(=O)Nc1ccc2[nH]nc(-c3ccc(F)cc3F)c2c1 [Example 217, N-[3-(2,4-Difluorophenyl)-1H-indazol-5-yl]-2-methanesulfonyl-benzenesulfonamide] | 92 | 83 | 70 | 95
20 | CS(=O)(=O)c1ccccc1S(=O)(=O)Nc1ccc2[nH]nc(-c3ccc(I)cc3)c2c1 [Example 218, N-[3-(4-Iodophenyl)-1H-indazol-5-yl]-2-methanesulfonyl-benzenesulfonamide] | 68 | 20 | 37 | 15
